The target in experiment [1] is Kappa-type opioid receptor (Rattus norvegicus, UniProt P34975).
Experiment [2] has as its target Delta-type opioid receptor (Rattus norvegicus, UniProt P33533).
A further experiment has as its target Mu-type opioid receptor (Rattus norvegicus, UniProt P33535).

pKi: −log10 of the molar value.

Chain of Kappa-type opioid receptor (P34975 whole entry): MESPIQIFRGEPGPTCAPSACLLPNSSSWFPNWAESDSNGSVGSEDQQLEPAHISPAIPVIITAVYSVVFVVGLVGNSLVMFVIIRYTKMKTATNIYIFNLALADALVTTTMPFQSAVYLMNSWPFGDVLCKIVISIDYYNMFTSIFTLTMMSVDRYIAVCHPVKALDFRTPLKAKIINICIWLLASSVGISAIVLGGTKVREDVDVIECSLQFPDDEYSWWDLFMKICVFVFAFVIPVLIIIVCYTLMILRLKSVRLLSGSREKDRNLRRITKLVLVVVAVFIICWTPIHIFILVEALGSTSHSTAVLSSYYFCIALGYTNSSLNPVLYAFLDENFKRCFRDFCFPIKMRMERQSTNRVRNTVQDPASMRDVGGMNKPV
Chain of Mu-type opioid receptor (P33535 whole entry): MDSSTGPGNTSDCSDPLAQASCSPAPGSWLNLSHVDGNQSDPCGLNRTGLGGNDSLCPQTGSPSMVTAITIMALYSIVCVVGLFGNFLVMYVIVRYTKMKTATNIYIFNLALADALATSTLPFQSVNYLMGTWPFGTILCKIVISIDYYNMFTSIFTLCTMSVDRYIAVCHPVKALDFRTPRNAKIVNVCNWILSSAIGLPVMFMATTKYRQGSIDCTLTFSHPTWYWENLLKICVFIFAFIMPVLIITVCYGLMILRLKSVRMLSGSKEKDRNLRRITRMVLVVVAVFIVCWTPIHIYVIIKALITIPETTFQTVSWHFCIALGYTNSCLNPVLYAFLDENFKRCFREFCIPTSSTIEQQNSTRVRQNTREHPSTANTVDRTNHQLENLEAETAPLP
Chain of Delta-type opioid receptor (P33533 whole entry): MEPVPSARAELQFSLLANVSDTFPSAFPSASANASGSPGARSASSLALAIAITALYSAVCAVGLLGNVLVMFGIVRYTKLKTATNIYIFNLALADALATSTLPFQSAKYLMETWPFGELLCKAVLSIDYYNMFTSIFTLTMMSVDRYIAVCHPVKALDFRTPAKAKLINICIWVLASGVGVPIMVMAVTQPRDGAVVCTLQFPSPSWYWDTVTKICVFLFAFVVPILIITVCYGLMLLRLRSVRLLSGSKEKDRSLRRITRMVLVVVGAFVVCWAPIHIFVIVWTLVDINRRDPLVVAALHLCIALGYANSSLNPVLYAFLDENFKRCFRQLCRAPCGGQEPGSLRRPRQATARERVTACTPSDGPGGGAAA

In experiment [1], `Oc1ccc2c3c1OC1c4[nH]c5c(c4CC4(O)CN(CCC314)C(C1CC1)C2)CC1(O)CN2CCC13c1c(ccc(O)c1OC53)CC2C1CC1` (stereo unspecified) [CAS_105618-26-6] showed a pKi of 7.41.
On to `CCO[C@@]12Cc3c([nH]c4ccccc34)[C@]3(C)Oc4c(O)ccc5c4[C@@]31CCN(CC1CC1)C2C5` [HS-378], for which, in experiment [2], the pKi is 6.28.
In the case of `COC12CCC(=O)C3(C)Oc4c(O)ccc5c4C31CCN(C)C2C5` (stereo unspecified) [NSC_125489], the pKi on Mu-type opioid receptor is 9.32; in experiment [1], 7.60.
In turn, `COc1cccc2c1C13CCN(CC4CC4)C(C2)C1(OC)CCC(=O)C3` (stereo unspecified) [NSC_3081671] showed a pKi at Mu-type opioid receptor of 7.82.
Take `CC(C)[C@H](NC(=O)[C@H](CCC(=O)O)NC(=O)[C@H](Cc1ccccc1)NC(=O)[C@@H](C)NC(=O)[C@@H](N)Cc1ccc(O)cc1)C(=O)N[C@H](C(=O)NCC(N)=O)C(C)C` [Tyr-D-Ala-Phe-Glu-Val-Val-GlyNH2]: in experiment [2], the pKi is 7.32.

As a reminder, the pKi is −log10 of the Ki, conventionally taken in molar units.
